Source: patent US11001590B2, “Pyrazolopyrimidine derivatives” (BAYER ANIMAL HEALTH GMBH, priority 2016, dated 2021)

Experiments:
[1] = log P by HPLC on reversed phase columns (Method L0; [a] acidic, [b] neutral range); conditions: for log P: HPLC on reversed phase columns (Method L0)
Description: Calibration was done with straight-chain alkan-2-ones (with 3 to 16 carbon atoms) with known log P values (measurement of log P values using retention times with linear interpolation between successive alkanones). Lambda-max-values were determined using UV-spectra from 200 nm to 400 nm and the peak values of the chromatographic signals.

[2] = test system: Dirofilaria immitis microfilariae; experiment: In vitro assay 3: Dirofilaria immitis microfilariae (DIROIM L1), motility; conditions: 72 h, reduction of motility vs negative control, 72 h incubation
[3] = target: C. elegans Slo-1a (Caenorhabditis elegans, UniProt Q95V25); experiment: In vitro assay 1: C. elegans Slo-1a, action at a recombinant C. elegans CHO cell line (membrane potential measurement); conditions: for pE50: CHO cells expressing C. elegans Slo-1a, voltage sensitive dye, FLIPR Tetra, negative decadic logarithm of EC50
Sequence of C. elegans Slo-1a (Q95V25 whole entry): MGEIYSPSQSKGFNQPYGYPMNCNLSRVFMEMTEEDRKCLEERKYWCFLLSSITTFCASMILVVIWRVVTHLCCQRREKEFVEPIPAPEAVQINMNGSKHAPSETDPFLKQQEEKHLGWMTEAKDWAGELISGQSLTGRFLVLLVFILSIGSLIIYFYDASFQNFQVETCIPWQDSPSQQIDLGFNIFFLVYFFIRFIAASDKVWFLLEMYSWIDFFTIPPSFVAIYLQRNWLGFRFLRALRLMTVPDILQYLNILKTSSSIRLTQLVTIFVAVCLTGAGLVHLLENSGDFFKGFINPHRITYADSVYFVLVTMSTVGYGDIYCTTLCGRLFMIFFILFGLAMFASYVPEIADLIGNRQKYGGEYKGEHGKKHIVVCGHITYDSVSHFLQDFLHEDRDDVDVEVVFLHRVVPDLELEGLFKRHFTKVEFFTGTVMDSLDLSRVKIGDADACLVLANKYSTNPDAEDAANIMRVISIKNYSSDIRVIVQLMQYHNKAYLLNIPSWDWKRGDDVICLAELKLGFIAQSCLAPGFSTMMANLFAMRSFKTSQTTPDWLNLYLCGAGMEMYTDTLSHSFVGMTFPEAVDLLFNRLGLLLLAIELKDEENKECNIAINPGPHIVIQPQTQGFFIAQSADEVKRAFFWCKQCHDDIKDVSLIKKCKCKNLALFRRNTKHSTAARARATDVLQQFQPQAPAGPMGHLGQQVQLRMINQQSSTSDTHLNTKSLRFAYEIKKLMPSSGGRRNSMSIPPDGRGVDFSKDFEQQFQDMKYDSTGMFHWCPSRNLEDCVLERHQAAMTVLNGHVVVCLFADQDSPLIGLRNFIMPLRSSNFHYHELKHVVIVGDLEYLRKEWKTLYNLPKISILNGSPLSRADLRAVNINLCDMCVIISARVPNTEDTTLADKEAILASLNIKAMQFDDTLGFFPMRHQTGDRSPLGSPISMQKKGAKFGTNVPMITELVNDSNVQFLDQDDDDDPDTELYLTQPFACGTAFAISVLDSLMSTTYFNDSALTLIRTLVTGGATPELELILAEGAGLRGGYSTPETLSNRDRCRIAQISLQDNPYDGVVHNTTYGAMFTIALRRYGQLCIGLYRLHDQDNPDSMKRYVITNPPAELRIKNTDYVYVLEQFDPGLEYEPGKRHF

[4] = last column of Table 1, column head not shown

Compound	chromatographic logP [1]	EC50 [2]	EC50 [3]	log P [1]	pE50 [3]	log P [1, 4]
Cc1nn2c(C(C)C)c(C(=O)N[C@H]3CCCc4ccccc43)cnc2c1-c1cccc(C(F)(F)F)c1 [Example 3]	5.59	< 10 µg/mL	50.1 nM	–	–	–
Cc1c(C(=O)N[C@H]2CCc3ccccc32)cnc2c(-c3ccccc3Cl)c(Cl)nn12 [Example 74]	3.99	< 1 µg/mL	39.8 nM	–	–	–
Cc1c(C(=O)N[C@H]2CCCc3ccccc32)cnc2c(-c3ccccc3Cl)c(Cl)nn12 [Example 77]	4.26	< 10 µg/mL	63.1 nM	–	–	–
CC(C)c1c(C(=O)N[C@H]2CCCc3ccccc32)cnc2c(-c3ccccc3Cl)c(Cl)nn12 [Example 78]	5.07	< 0.1 µg/mL	31.6 nM	–	–	–
Cc1nn2c(C(C)C)c(C(=O)N[C@H]3CCCc4ccccc43)cnc2c1-c1ccccc1F [Example 94]	4.72	< 0.1 µg/mL	15.8 nM	–	–	–
Cc1nn2c(C(C)C)c(C(=O)N[C@H]3CCCc4ccccc43)cnc2c1-c1ccc(F)c(F)c1 [Example 102]	5.14	< 10 µg/mL	63.1 nM	–	–	–
Cc1nn2c(C(C)C)c(C(=O)N[C@H]3CCCc4ccccc43)cnc2c1-c1cc(F)ccc1F [Example 115]	4.89	< 0.1 µg/mL	15.8 nM	–	–	–
Cc1nn2c(C(C)C)c(C(=O)N[C@H]3CCOc4ccccc43)cnc2c1-c1ccc(Cl)cc1 [Example 118]	4.88	< 0.1 µg/mL	15.8 nM	–	–	–
Cc1nn2c(C(C)C)c(C(=O)N[C@H]3CCc4ccccc43)cnc2c1-c1cc(Cl)c(Cl)c(Cl)c1 [Example 122]	6.58	< 0.1 µg/mL	12.6 nM	–	–	–
Cc1nn2c(C(C)C)c(C(=O)N[C@H]3CCCc4ccccc43)cnc2c1-c1cc(Cl)c(Cl)c(Cl)c1 [Example 125]	6.86	< 1 µg/mL	25.1 nM	–	–	–
CC(C)c1c(C(=O)N[C@H]2CCc3ccccc32)cnc2c(-c3c(F)cc(F)cc3F)c(C(F)(F)F)nn12 [Example 133]	5.01	< 1 µg/mL	79.4 nM	–	–	–
CC(C)c1c(C(=O)N[C@H]2CCc3ccccc32)cnc2c(-c3c(F)cccc3F)c(C(F)(F)F)nn12 [Example 135]	4.81	< 0.1 µg/mL	126 nM	–	–	–
CC(C)c1c(C(=O)N[C@H]2CCOc3ccccc32)cnc2c(-c3cccc(OC(F)(F)F)c3)c(C(F)(F)F)nn12 [Example 137]	5.31	< 10 µg/mL	25.1 nM	–	–	–
CC(C)c1c(C(=O)N[C@H]2CCCc3ccccc32)cnc2c(-c3c(F)cccc3F)c(C(F)(F)F)nn12 [Example 138]	5.06	< 10 µg/mL	316 nM	–	–	–
CC(C)c1c(C(=O)N[C@H]2CCOc3ccccc32)cnc2c(-c3c(F)cccc3F)c(C(F)(F)F)nn12 [Example 139]	4.56	< 0.1 µg/mL	126 nM	–	–	–
CC(C)c1c(C(=O)N[C@H]2CCOc3ccccc32)cnc2c(-c3c(F)cc(F)cc3F)c(C(F)(F)F)nn12 [Example 140]	4.77	< 0.1 µg/mL	79.4 nM	–	–	–
Cc1nn2c(C(C)C)c(C(=O)N[C@H]3CCOc4ccccc43)cnc2c1-c1ccc(Cl)c(Cl)c1 [Example 230]	–	–	–	5.48	8.1	–
COc1ccc(F)c(-c2c(C)nn3c(C(C)C)c(C(=O)N[C@H]4CCOc5ccccc54)cnc23)c1Cl [Example 233]	–	–	–	4.23	8.1	–
COc1c(F)cc(F)c(-c2c(C)nn3c(C(C)C)c(C(=O)N[C@H]4CCOc5ccccc54)cnc23)c1F [Example 235]	–	–	–	4.38	9.2	–
CC(C)c1c(C(=O)N[C@H]2CCOc3ccccc32)cnc2c(-c3cccc(F)c3F)c(Cl)nn12 [Example 281, 2-Chloro-N—((S)-chroman-4-yl)-3-(2,3-difluorophenyl)-7-isopropylpyrazolo[1,5-a]pyrimidine-6-carboxamide]	–	< 0.1 µg/mL	5.01 nM	–	–	–
Cc1nn2c(C(C)C)c(C(=O)N[C@H]3CCc4ccccc43)cnc2c1-c1cccc(C#N)c1 [Example 291]	4.31	–	50.1 nM	–	–	–
Cc1nn2c(C(C)C)c(C(=O)N[C@H]3CCc4ccccc43)cnc2c1-c1cc(F)cc(C(F)(F)F)c1 [Example 292]	5.6	–	39.8 nM	–	–	–
Cc1nn2c(C(C)C)c(C(=O)N[C@H]3CCc4ccccc43)cnc2c1-c1ccc(C#N)c(C(F)(F)F)c1 [Example 293]	4.97	–	316 nM	–	–	–
Cc1nn2c(C(C)C)c(C(=O)N[C@H]3CCc4ccccc43)cnc2c1-c1ccc(Cl)nc1 [Example 295]	4.21	–	63.1 nM	–	–	–
Cc1nn2c(C(C)C)c(C(=O)N[C@H]3CCc4ccccc43)cnc2c1-c1cncnc1 [Example 296]	2.99	–	7940 nM	–	–	–
Cc1nn2c(C(C)C)c(C(=O)N[C@H]3CCc4ccccc43)cnc2c1-c1cnn(C)c1 [Example 303]	3.13	–	794 nM	–	–	–

Compound	chromatographic logP [1]	EC50 [2]	EC50 [3]	log P [1]	pE50 [3]	log P [1, 4]
COCc1c(C(=O)N[C@H]2CCc3ccccc32)cnc2c(-c3cccc(C(F)(F)F)c3)c(C)nn12 [Example 305]	4.52	–	63.1 nM	–	–	–
CCc1c(C(=O)N[C@H]2CCc3ccccc32)cnc2c(-c3cccc(C(F)(F)F)c3)c(C)nn12 [Example 306]	4.86	–	50.1 nM	–	–	–
Cc1nn2c(C(C)C)c(C(=O)N[C@H]3CCc4ccccc43)cnc2c1-c1cnn(CC(F)(F)F)c1 [Example 310]	–	–	–	3.81	8	–
Cc1nn2c(C(F)F)c(C(=O)N[C@H]3CCc4ccccc43)cnc2c1-c1cccc(C(F)(F)F)c1 [Example 311, (S)-7-(Difluoromethyl)-N-(2,3-dihydro-1H-inden-1-yl)-2-methyl-3-(3-(trifluoromethyl)-phenyl)-pyrazolo[1,5-a]pyrimidine-6-carboxamide]	4.36	–	200 nM	–	–	–
Cc1nn2c(C(C)C)c(C(=O)N[C@H]3CCc4ccccc43)cnc2c1-c1cccc(N2CCOCC2)c1 [Example 316]	4.26	–	158 nM	–	–	–
Cc1nn2c(C(C)C)c(C(=O)N[C@H]3CCc4ccccc43)cnc2c1-c1ccncc1 [Example 318]	1.84	–	1000 nM	–	–	–
CCOc1cccc(-c2c(C)nn3c(C(C)C)c(C(=O)N[C@H]4CCc5ccccc54)cnc23)c1 [Example 322]	4.94	–	12.6 nM	–	–	–
Cc1nn2c(C(C)C)c(C(=O)N[C@H]3CCc4ccccc43)cnc2c1-c1ccc(N2CCOCC2)cc1 [Example 326]	4.2	–	1260 nM	–	–	–
Cc1nn2c(C(C)C)c(C(=O)N[C@H]3CCc4ccccc43)cnc2c1-c1cccc(-n2cccn2)c1 [Example 328]	4.4	–	39.8 nM	–	–	–
COc1ccc(-c2c(C)nn3c(C(C)C)c(C(=O)N[C@H]4CCc5ccccc54)cnc23)cc1 [Example 333]	4.43	–	100 nM	–	–	–
Cc1nn2c(C(C)C)c(C(=O)N[C@H]3CCc4ccccc43)cnc2c1-c1ccc(OC(F)F)cc1 [Example 335]	4.66	–	126 nM	–	–	–
CCOc1ccc(-c2c(C)nn3c(C(C)C)c(C(=O)N[C@H]4CCc5ccccc54)cnc23)cc1 [Example 339]	4.87	–	2510 nM	–	–	–
Cc1nn2c(C(C)C)c(C(=O)N[C@H]3CCCc4ccccc43)cnc2c1-c1cnn(CC(F)(F)F)c1 [Example 359]	–	–	–	4.11	7.9	–
Cc1nn2c(C(C)C)c(C(=O)N[C@H]3CCc4ccccc43)cnc2c1-c1cccc(C[S+](C)[O-])c1 (stereo partly drawn) [Example 380]	–	–	–	3.05	6	–
Cc1nn2c(C(C)C)c(C(=O)N[C@H]3CCOc4ccccc43)cnc2c1-c1cnn(CC(F)(F)F)c1 [Example 401]	–	–	–	–	7.9	3.57
Cc1nn2c(C3CC3)c(C(=O)N[C@H]3CCc4ccccc43)cnc2c1-c1cnn(CC(F)(F)F)c1 [Example 421]	–	–	–	–	8.1	3.17
Cc1nn2c(C3CC3)c(C(=O)N[C@H]3CCOc4ccccc43)cnc2c1-c1cnn(CC(F)(F)F)c1 [Example 468]	–	–	–	–	7.8	2.95
Cc1nn2c(CN(C)C)c(C(=O)N[C@H]3CCc4ccccc43)cnc2c1-c1cccc(Cl)c1Cl [Example 522]	–	–	–	–	7.8	2.08
Cc1nn2c(CN(C)C)c(C(=O)N[C@H]3CCOc4ccccc43)cnc2c1-c1cccc(Cl)c1Cl [Example 523]	–	–	–	–	8.0	2.17
CSCCN(C)c1c(C(=O)N[C@H]2CCOc3ccccc32)cnc2c(-c3cccc(Cl)c3Cl)c(C)nn12 [Example 529]	–	–	–	–	8.1	4.69
Cc1nn2c(N3CCOCC3)c(C(=O)N[C@H]3CCOc4ccccc43)cnc2c1-c1cccc(C(F)(F)F)c1F [Example 530]	–	–	–	–	9.0	3.99
Cc1nn2c(NC3CC3)c(C(=O)N[C@H]3CCOc4ccccc43)cnc2c1-c1cc(F)cc(F)c1 [Example 539]	–	–	–	–	6.8	4.46
Cc1nn2c(N(C)CCS(C)(=O)=O)c(C(=O)N[C@H]3CCOc4ccccc43)cnc2c1-c1cc(Cl)cc(Cl)c1 [Example 541]	–	–	–	–	8.0	3.29
Cc1nn2c(NC3CC3)c(C(=O)N[C@H]3CCOc4ccccc43)cnc2c1-c1cc(Cl)cc(Cl)c1 [Example 542]	–	–	–	–	6.5	5.59
Cc1nn2c(NC3CC3)c(C(=O)N[C@H]3CCOc4ccccc43)cnc2c1-c1cccc(Cl)c1Cl [Example 546]	–	–	–	–	8.2	4.32
Cc1nn2c(C3CC3)c(C(=O)N[C@H]3CCOc4ccccc43)cnc2c1-c1cc(F)cc(F)c1F [Example 557]	3.72	–	2 nM	–	–	–
